According to ChEMBL document CHEMBL1208771, “Improvement of both plasmepsin inhibitory activity and antimalarial activity by 2-aminoethylamino substitution” (Bioorg Med Chem Lett, 2010):

What was measured:
Plasmepsin II = Plasmepsin II (Plasmodium falciparum, UniProt P46925); test: Inhibition of Plasmodium falciparum plasmepsin-2
Plasmodium falciparum [1] = test: Antiplasmodial activity against Plasmodium falciparum D6 infected in human erythrocytes by SYBR green I fluorescence assay; format: functional, organism-based
Plasmodium falciparum [2] = test: Ratio of compound EC50 to chloroquine EC50 for Plasmodium falciparum D6 infected in human erythrocytes; format: functional

Sequence of Plasmepsin II (P46925 whole entry): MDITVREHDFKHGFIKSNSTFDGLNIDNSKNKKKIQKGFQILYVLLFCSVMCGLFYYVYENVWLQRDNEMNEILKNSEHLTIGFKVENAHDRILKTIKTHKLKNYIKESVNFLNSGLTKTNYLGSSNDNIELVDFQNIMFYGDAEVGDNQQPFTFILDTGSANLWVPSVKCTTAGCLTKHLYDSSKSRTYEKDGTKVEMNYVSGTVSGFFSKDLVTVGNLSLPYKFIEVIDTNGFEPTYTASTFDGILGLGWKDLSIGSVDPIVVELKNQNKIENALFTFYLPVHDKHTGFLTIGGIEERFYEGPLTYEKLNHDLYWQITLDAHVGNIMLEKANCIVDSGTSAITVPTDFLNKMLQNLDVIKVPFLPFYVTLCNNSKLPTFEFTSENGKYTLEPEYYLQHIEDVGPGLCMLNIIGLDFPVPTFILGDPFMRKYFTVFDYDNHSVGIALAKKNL

Row | Structure (SMILES) | Ki (Plasmepsin II) [nM] | EC50 (Plasmodium falciparum [1]) [nM] | Ratio EC50 (Plasmodium falciparum [2])
1 | Cc1cc(NCCN)cc(C)c1OCC(=O)N[C@@H](Cc1ccccc1)[C@H](O)C(=O)N1CSC(C)(C)[C@H]1C(=O)N[C@H]1c2ccccc2C[C@H]1O | 6.5 | 290 | –
2 | CCN(CC)CCCC(C)Nc1ccnc2cc(Cl)ccc12 (stereo unspecified) [CHLOROQUINE] | – | 20 | –
3 | CCNCCNc1cc(C)c(OCC(=O)N[C@@H](Cc2ccccc2)[C@H](O)C(=O)N2CSC(C)(C)[C@H]2C(=O)N[C@H]2c3ccccc3C[C@H]2O)c(C)c1 | 0.68 | 220 | –
4 | CCN(CC)CCN(CC)c1cc(C)c(OCC(=O)N[C@@H](Cc2ccccc2)[C@H](O)C(=O)N2CSC(C)(C)[C@H]2C(=O)N[C@H]2c3ccccc3C[C@H]2O)c(C)c1 | 10 | 1100 | –
5 | Cc1cc(NCc2ccccn2)cc(C)c1OCC(=O)N[C@@H](Cc1ccccc1)[C@H](O)C(=O)N1CSC(C)(C)[C@H]1C(=O)N[C@H]1c2ccccc2C[C@H]1O | – | 560 | –
6 | CCNCCN(CC)c1cc(C)c(OCC(=O)N[C@@H](Cc2ccccc2)[C@H](O)C(=O)N2CSC(C)(C)[C@H]2C(=O)N[C@H]2c3ccccc3C[C@H]2O)c(C)c1 | 4.2 | 790 | –
7 | CNCCN(C)c1cc(C)c(OCC(=O)N[C@@H](Cc2ccccc2)[C@H](O)C(=O)N2CSC(C)(C)[C@H]2C(=O)N[C@H]2c3ccccc3C[C@H]2O)c(C)c1 | 1.2 | 190 | 10
8 | CNCCNc1cc(C)c(OCC(=O)N[C@@H](Cc2ccccc2)[C@H](O)C(=O)N2CSC(C)(C)[C@H]2C(=O)N[C@H]2c3ccccc3C[C@H]2O)c(C)c1 | 9.1 | 1400 | –
9 | Cc1cc(N(C)CCN)cc(C)c1OCC(=O)N[C@@H](Cc1ccccc1)[C@H](O)C(=O)N1CSC(C)(C)[C@H]1C(=O)N[C@H]1c2ccccc2C[C@H]1O | 8.5 | 1400 | –
10 | CCN(CC)CCNc1cc(C)c(OCC(=O)N[C@@H](Cc2ccccc2)[C@H](O)C(=O)N2CSC(C)(C)[C@H]2C(=O)N[C@H]2c3ccccc3C[C@H]2O)c(C)c1 | 5.1 | 1600 | –
11 | Cc1cc(NCCN(C)C)cc(C)c1OCC(=O)N[C@@H](Cc1ccccc1)[C@H](O)C(=O)N1CSC(C)(C)[C@H]1C(=O)N[C@H]1c2ccccc2C[C@H]1O | 17 | 2000 | –
12 | Cc1cccc(C)c1OCC(=O)N[C@@H](Cc1ccccc1)[C@H](O)C(=O)N1CSC(C)(C)[C@H]1C(=O)N[C@H]1c2ccccc2C[C@H]1O | – | 5000 | –
13 | Cc1cc(N(C)CCN(C)C)cc(C)c1OCC(=O)N[C@@H](Cc1ccccc1)[C@H](O)C(=O)N1CSC(C)(C)[C@H]1C(=O)N[C@H]1c2ccccc2C[C@H]1O | < 0.1 | 360 | –
14 | CCN(CCN)c1cc(C)c(OCC(=O)N[C@@H](Cc2ccccc2)[C@H](O)C(=O)N2CSC(C)(C)[C@H]2C(=O)N[C@H]2c3ccccc3C[C@H]2O)c(C)c1 | < 0.1 | 460 | –
